Data reported in US8658566B2, “Composition and method for controlling plant diseases” (Sumitomo Chemical Company, Limited, priority 2009, dated 2014).

Tested on: Pythium damping-off pathogen (Pythium irregulare)
Test: Cucumber seed treatment test against Pythium damping-off (Test Example 1)
Format: in vivo
Conditions: cucumber (Sagamihanjiro) seed treatment, 20° C., 8 days
Procedure: A DMSO solution of the compound I and a DMSO solution of ethaboxam were respectively prepared. These solutions were mixed to prepare a DMSO solution containing predetermined concentrations of the compound I and ethaboxam. Ten (10) μL of the DMSO solution and 1 g of cucumber (Sagamihanjiro) seeds were mixed by shaking in a 15-ml conical tube and then allowed to stand overnight to prepare treated seeds. A plastic pot was filled with sandy soil and the treated seeds were sown on it and then covered with sandy soil which had been mixed with a bran culture of Pythium damping-off pathogen (Pythium irregulare). The sown seeds were watered and then cultured in a cultivation room at 20° C. for 8 days. The occurrence of Pythium damping-off diseases was checked and the incidence of disease was calculated by Equation 1.
For comparison, a DMSO solution containing a predetermined concentration of ethaboxam was prepared and subjected to the same test and then the incidence of disease was determined.
In order to calculate a control value, the same test was conducted in which the plants had been treated with none of the test compounds and the incidence of disease was determined.
The control value was calculated by the Equation 2 based on the incidence of disease thus determined. […]

CCNc1nc(CC)c(C(=O)NC(C#N)c2cccs2)s1 (centres unmarked) [Ethaboxam]
Control value (ethaboxam 2 g/100 kg seeds alone (compound I 0)): 43
Control value (ethaboxam 10 g/100 kg seeds alone (compound I 0)): 64
